One test concerns β-catenin-TCF-mediated reporter transcription activity in Colo 205 cells. Kind of test: Colo 205 reporter assay (TCF/LEF promoter-driven firefly luciferase). It is filed as cell-based. Particulars: Homo sapiens; Colo 205 TCF/LEF luciferase reporter, 5 hours after compound addition, 384 well; read-out: Colo205 IC50. The text has this:
The compounds of the invention described herein were screened using the assay procedure for β-catenin-TCF-mediated reporter transcription activity described below.
Reporter cell lines were generated by stably transfecting cells of cancer cell lines (e.g., colon cancer) with a plasmid reporter construct (From SABiosciences, a QIAGEN company) that includes TCF/LEF promoter driving expression of the firefly luciferase gene. TCF/LEF reporter constructs were made in which TCF/LEF promoter, a promoter with optimal number of TCF/LEF binding sites designed by SABiosciences, was linked upstream of the firefly luciferase gene. This construct could also include a puromycin resistance gene as a selectable marker. This construct could also be used to stably transfect Colo 205 cells, a colon cancer cell line having a mutated APC gene that causes a constitutively active β-catenin. A control cell line was generated using another plasmid construct containing the luciferase gene under the control of a CMV basal promoter which is not activated by β-catenin.
Colo 205 Cultured cells with a stably transfected reporter construct were plated at approximately 10,000 cells per well into 384 well multi-well plates for twenty four hours. The testing compounds were then added to the wells in 2-fold serial dilutions using a twenty micromolar top concentration. A series of control wells for each cell type received only compound solvent. Five hours after the addition of compound, reporter activity for luciferase was assayed, by addition of the SteadyGlo luminescence reagent (Promega). The reporter luminescence activity was measured using Pherastar plate reader (BMG Labtech). Readings were normalized to DMSO only treated cells, and normalized activities were then used in the IC50 calculations. The Colo 205 reporter assay data are summarized in Table 3: A<0.3 μM; 0.3 μM≤B<1.0 μM; 1.0 μM≤C<5.0 μM; D≥5.0 μM.
As for `Cc1cc(N2CCCCC[C@@H]2c2cc(OC(C)C)ccc2Cl)nc(N)n1` (single isomer, unassigned) [I-108], the IC50 (as a rule, the concentration needed to halve the response being measured) is less than 300 nM.
On the same count and under the same terms, the result for `COc1ccc(O)cc1C1CCCCCN1c1cc(C)nc(N)n1` (centres unmarked) [I-107, 3-[1-(2-amino-6-methyl-pyrimidin-4-yl)azepan-2-yl]-4-methoxy-phenol] reads less than 300 nM.
Still for that read-out and setting: the result for `Cc1cc(N2CCCOC[C@@H]2c2ccccc2Cl)nc(N)n1` (single isomer, unassigned) [I-31] reads less than 300 nM.
Turning to `CNC(=O)c1ccc(Cl)c(C2COCCCN2c2cc(C)nc(N)n2)c1` (racemic) [I-129, (+/−)-3-(4-(2-amino-6-methylpyrimidin-4-yl)-1,4-oxazepan-3-yl)-4-chloro-N-methylbenzamide], the IC50 was 300 to 1000 nM.
With `CSc1ccccc1C1CCCCCN1c1cc(C)nc(N)n1` (racemic) [I-5, (+/−)-4-methyl-6-(2-(2-(methylthio)phenyl)azepan-1-yl)pyrimidin-2-amine], the IC50 lay within 300 to 1000 nM.
The same measure, in the same setting: the value for `Cc1cc(N2CCCOCC2c2cc(NC(=O)C(F)(F)F)ccc2Cl)nc(N)n1` (racemic) [I-159, (+/−)-N-[3-[4-(2-amino-6-methyl-pyrimidin-4-yl)-1,4-oxazepan-3-yl]-4-chloro-phenyl]-2,2,2-trifluoro-acetamide] was less than 300 nM; that for `Cc1cc(N2CCCOCC2c2ccc(F)cc2Cl)nc(N)n1` (racemic) [I-63, (+/−)-4-[3-(2-chloro-4-fluoro-phenyl)-1,4-oxazepan-4-yl]-6-methyl-pyrimidin-2-amine] was 300 to 1000 nM; that for `COc1ccc(Cl)c([C@H]2COCCCN2c2cc(C)nc(N)n2)c1` (single isomer, unassigned) [I-138] was less than 300 nM.
The same measure, in the same setting: the value for `COc1ccc(Cl)cc1C1COCCCN1c1cc(C)nc(N)n1` (centres unmarked) [I-291] was 300 to 1000 nM.

Another test deals with XBP1(u)-luciferase splicing reporter in HepG2 hepatoma cells. Kind of test: HepG2 XBP1 reporter assay (XBP1(u)-Luc). It is filed as cell-based. Conditions: Homo sapiens, 6 h, six hours after addition of compound. From the text: HepG2 XBP1 Reporter Assay
HepG2 hepatoma cells were transduced with a retrovirus encoding the cDNA for unspliced (u) XBP1, which contains a non-processed intron, fused to the cDNA for firefly luciferase. Upon induction of ER stress, the non-processed intron of XBP1(u) is spliced out by active IRE1alpha endonuclease. The resulting spliced (s) XBP1 is now in frame with luciferase which causes the production of active luciferase protein, resulting in bioluminescence
HepG2 XBP1(u)-Luc cells were plated […] Cultured cells with a stably transfected reporter construct were plated at approximately 30,000 cells per well into 96 well multi-well plates for twenty four hours. The testing compounds were then added to the wells in 3-fold serial dilutions using a twenty seven micromolar top concentration. A series of control wells for each cell type received only compound solvent. Six hours after the addition of compound, reporter activity for luciferase was assayed, by addition of the SteadyGlo luminescence reagent (Promega). The reporter luminescence activity was measured using Pherastar plate reader (BMG Labtech). Readings was normalized to DMSO only treated cells, and normalized activities were then used in the IC50 calculations. The HepG2 XBP1 reporter assay data are summarized in Tables 3-5: A<0.6 μM; 0.6 μM≤B<2.0 μM; 2.0 μM≤C<5.0 μM; D≥5.0 μM.
`Cc1cc(N2CCCOC[C@H]2c2ccc(CS(C)(=O)=O)nc2OC(F)F)nc(N)n1` [D-173] had an IC50 of no less than 5000 nM.
Same read-out and setting: the result for `Cc1cc(N2CCCOCC2c2cc3c(cc2Cl)NC[C@@](C)(C(=O)NC2CC2)O3)nc(N)n1` (stereo partly drawn) [D-122] reads less than 600 nM; that for `Cc1cc(N2CCCOC[C@H]2c2cc(O)c(C(=O)NCCO)cc2Cl)nc(N)n1` [D-185], no less than 5000 nM; that for `Cc1cc(N2CCCOCC2c2ccc(NC(=O)CC3CC3)cc2Cl)nc(N)n1` [D-94], 2000 to 5000 nM.
Same read-out and setting: the result for `Cc1cc(N2CCCOC[C@H]2c2cc(O)c(C(=O)N3CCOCC3)cc2Cl)nc(N)n1` [D-189] reads no less than 5000 nM.
On the same count and under the same terms, the result for `Cc1cc(N2CCCOCC2c2cnc(CS(C)(=O)=O)nc2O)nc(N)n1` [D-172] reads no less than 5000 nM; that for `COc1cc(C2COCCCN2c2cc(C)nc(N)n2)c(Cl)cc1OCC(=O)NC(C)(C)C` [D-32], 600 to 2000 nM; that for `Cc1cc(N2CCCOCC2c2cc(O)c(NC(=O)CC(C)(C)O)cc2Cl)nc(N)n1` [D-100], 600 to 2000 nM.
Compound `Cc1cc(N2CCCOC[C@@H]2c2cc(O)c(C(N)=O)cc2Cl)nc(N)n1` [D-115] returned an IC50 of 600 to 2000 nM.
On the same count and under the same terms, the value for `Cc1cc(N2CCCOC[C@H]2c2cc(N)c(OC(F)(F)F)cc2Cl)nc(N)n1` [D-161] was no less than 5000 nM.
For `Cc1cc(N2CCCOC[C@H]2c2cc(O)c(C(=O)NC(C)C)cc2Cl)nc(N)n1` [D-121], the IC50 was no less than 5000 nM.
Same read-out and setting: the value for `Cc1cc(N2CCCOCC2c2ncc(CS(C)(=O)=O)cc2OC(F)F)nc(N)n1` [D-67] was 600 to 2000 nM.
On the same count and under the same terms, the value for `CCOc1cc(C2COCCCN2c2cc(C)nc(N)n2)c(Cl)cc1OCC(=O)NC(C)(C)C` [D-47] was 600 to 2000 nM.
Still for that read-out and setting: the result for `Cc1cc(N2CCCOC[C@@H]2c2ccc(C3CCNCC3)cc2Cl)nc(N)n1` [D-66] reads 2000 to 5000 nM; that for `Cc1cc(N2CCCOC[C@@H]2c2cc(CN)c(Cl)cc2C)nc(N)n1` [D-99], less than 600 nM.
`Cc1cc(N2CCCOCC2c2ccc(NC(=O)CC(C)(C)C)cc2Cl)nc(N)n1` [D-96]: the IC50 was in the range of 600 to 2000 nM.
On the same count and under the same terms, the value for `CCc1cc(N2CCCOCC2c2cc(O)c(CS(C)(=O)=O)cc2Cl)nc(N)n1` [D-98] was less than 600 nM.
Still for that read-out and setting: the result for `CCOc1cc(C2COCCCN2c2cc(C)nc(N)n2)c(Cl)cc1OCC(=O)OC` [D-44] reads 600 to 2000 nM.
On the same count and under the same terms, the result for `COC(=O)Cc1cc(C2COCCCN2c2cc(C)nc(N)n2)c(Cl)cc1C#N` [D-53] reads 2000 to 5000 nM; that for `Cc1cc(N2CCCOC[C@@H]2c2cc3c(cc2Cl)NC[C@@](C)(C(=O)NCCO)O3)nc(N)n1` [D-133], less than 600 nM.
Take `Cc1cc(N2CCCOC[C@@H]2c2cc3c(cc2Cl)NC[C@@](C)(C(=O)O)O3)nc(N)n1` [D-181]: the IC50 is no less than 5000 nM.
Same read-out and setting: the result for `Cc1cc(N2CCCOC[C@@H]2c2cc3c(cc2Cl)NC[C@@](C)(C(=O)N(C)C)O3)nc(N)n1` [D-132] reads less than 600 nM; that for `Cc1cc(N2CCCOC[C@@H]2c2ccc([C@H](C)S(C)(=O)=O)cc2Cl)nc(N)n1` [D-139], 600 to 2000 nM; that for `Cc1cc(N2CCCOC[C@@H]2c2ccc([C@H]3CCCN3)cc2Cl)nc(N)n1` [D-90], less than 600 nM.
The same measure, in the same setting: the result for `COc1cc(OC)c(C2COCCCN2c2cc(C)nc(N)n2)cc1O` [D-127] reads less than 600 nM.
The same measure, in the same setting: the value for `CCOC(=O)c1cc(C2COCCCN2c2cc(C)nc(N)n2)c(Cl)cc1C#N` [D-129] was no less than 5000 nM; that for `CCc1ccccc1[C@H]1COCCCN1c1cc(C)nc(N)n1` [D-106] was less than 600 nM.

Still in this test, the particulars now being: Homo sapiens, 6 hours after compound addition, Table 4.
On to `Cc1cc(N2CCCOCC2c2cc3c(cc2Cl)NCCC3)nc(N)n1` (centres unmarked) [C-43], for which the IC50 is less than 600 nM.
The compound `C=CCOc1cc(Cl)c(C2COCCCN2c2cc(C)nc(N)n2)cc1OC` (centres unmarked) [C-45] displayed a concentration for half-maximal inhibition (IC50) of 600 to 2000 nM.
Still for that read-out and setting: the value for `Cc1cc(N2CCCOC[C@@H]2c2cc3c(cc2Cl)NCC3)nc(N)n1` [C-59] was less than 600 nM; that for `Cc1cc(N2CCCOCC2c2ccc(O[C@H](C)CO)cc2Cl)nc(N)n1` (stereo partly drawn) [C-60, (R)-2-{4-[4-(2-Amino-6-methyl-pyrimidin-4-yl)-[1,4]oxazepan-3-yl]-3-chloro-phenoxy}-propan-1-ol] was 600 to 2000 nM.
The same measure, in the same setting: the value for `CC[C@@H]1COC[C@@H](c2ccc(CS(C)(=O)=O)cc2Cl)N(c2cc(C)nc(N)n2)C1` [C-110] was no less than 5000 nM; that for `Cc1cc(N2CCCOC[C@@H]2c2ccc(OC[C@@H](O)CO)cc2Cl)nc(N)n1` [C-64, (S)-3-{4-[(S)-4-(2-Amino-6-methyl-pyrimidin-4-yl)-[1,4]oxazepan-3-yl]-3-chloro-phenoxy}-propane-1,2-diol] was 2000 to 5000 nM.
The same measure, in the same setting: the result for `Cc1cc(N2CCCOCC2c2ccc(OCS(C)(=O)=O)cc2Cl)nc(N)n1` (centres unmarked) [C-120, 4-[3-(2-Chloro-4-methanesulfonylmethoxy-phenyl)-[1,4]oxazepan-4-yl]-6-methyl-pyrimidin-2-ylamine] reads less than 600 nM; that for `Cc1cc(N2CCCOC[C@@H]2c2cc3c(cc2Cl)CCN3)nc(N)n1` [C-134], less than 600 nM; that for `COc1cc(Cl)c([C@@H]2COCCCN2c2cc(C)nc(N)n2)cc1O` [C-94], less than 600 nM.
In the case of `CCOc1cc(C2COCCCN2c2cc(C)nc(N)n2)c(Cl)cc1OC` (centres unmarked) [C-29], the 50% inhibitory concentration (IC50) is less than 600 nM.
The same measure, in the same setting: the value for `Cc1cc(N2CCCOCC2c2cc(Cl)c(F)cc2Cl)nc(N)n1` (centres unmarked) [C-100] was 2000 to 5000 nM; that for `CCCOc1cc(Cl)c(C2COCCCN2c2cc(C)nc(N)n2)cc1OC` (centres unmarked) [C-47] was 600 to 2000 nM; that for `Cc1cc(N2CCCOCC2c2cc(OC(F)(F)F)c(N)cc2Cl)nc(N)n1` (centres unmarked) [C-130] was 600 to 2000 nM.
The same measure, in the same setting: the result for `CNc1cc(Cl)c(C2COCCCN2c2cc(C)nc(N)n2)cc1C` (centres unmarked) [C-25] reads less than 600 nM.
The compound `COc1cc(C2COCCCN2c2ccnc(N)n2)c(Cl)cc1OC1CCCC1` (centres unmarked) [C-102] yielded an IC50 of 600 to 2000 nM.
Turning to `COc1cc(C2COCCCN2c2cc(C)nc(N)n2)c(Cl)cc1OCC(N)=O` (centres unmarked) [C-97], the IC50 is 600 to 2000 nM.
The compound `Cc1cc(N2CCCOC[C@@H]2c2ccc(N3CCC(C)(O)CC3)c(F)c2Cl)nc(N)n1` [C-126] gave a concentration for half-maximal inhibition (IC50) of 600 to 2000 nM.
On the same count and under the same terms, the result for `Cc1cc(N2CCCOC[C@@H]2c2cc(F)c(N3CCC(C)(O)CC3)cc2Cl)nc(N)n1` [C-125] reads 600 to 2000 nM.
For `Cc1cc(N2CCCOC[C@@H]2c2cc(C)c(N)cc2Cl)nc(N)n1` [C-115], the IC50 is less than 600 nM.
Take `Cc1cc(N2CCCOCC2c2cc(N)c(C(F)(F)F)cc2Cl)nc(N)n1` (centres unmarked) [C-77]: the IC50 was 600 to 2000 nM.

Values taken from patent US11440907B1 (Merck Patent GmbH, priority 2018, dated 2022).
